Drawing on PubChem BioAssay (NCI), this text covers GI50 and TGI for ten compounds.

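Dose response: 5 concentrations. Exposure: 48 h. Format: 96-well plates. Endpoint: linear interpolation; highest concentration if not reached. GI50 = concentration required for 50% inhibition of growth. Definition used: TGI = concentration required for complete inhibition of growth.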 Some results are limits rather than exact numbers.

Holding throughout (assay): inhibition of tumour cell growth, NCI panel, 48 h
Test [1] deals with UACC-257 melanoma.
For test [2], the system named is M14 melanoma.
The test system of test [3] is RXF 393 renal.
In test [4] the test system is HCC-2998 colon.
In test [5] the test system is A549 NSCLC.
Test [6] concerns SW-620 colon.
Test [7] concerns ACHN renal.
Test [8] concerns PC-3 prostate.
For test [9], the system named is CAKI-1 renal.
For test [10], the system named is CCRF-CEM leukemia.

With `Cc1ccc(-c2nc(N3CCCNCC3)c3oc(-c4ccc(C)cc4)nc3n2)cc1`, the GI50 was 19.8 µM in [1]; 1.85 µM in test [2]; 1.65 µM in test [3]; 32.3 µM in [4]; 1.72 µM in test [5]; 1.66 µM in test [6]. In addition, the GI50 in test [7] is 1.75 µM; in test [8], 1.51 µM; in test [9], 1.56 µM. In addition, the TGI in [1] is 41.1 µM; in [2] it was 3.55 µM; in [3] it was 3.14 µM; in test [4] it was above 100 µM; in test [5], 3.13 µM; in test [6], 3.2 µM. The values for the TGI in [7], in test [8] and in test [9] were 3.13 µM, 2.91 µM and 3.02 µM, respectively.

Consider `Cn1cnc([N+](=O)[O-])c1Sc1ncn[nH]1`, for which the GI50 is 68.2 µM in [1]; above 100 µM in test [2]; 29 µM in test [3]; above 100 µM in test [4]; 28.6 µM in [10]; above 100 µM in test [5]. For the same compound, the GI50 in test [6] is 61.1 µM; in test [7], 76.1 µM; in test [8] it was above 100 µM; in test [9] it was 30.7 µM. The TGI in [1], in [2], in test [3], in test [4], in test [10] and in test [5] was above 100 µM throughout. The TGI in [6], in [7], in test [8] and in test [9] was above 100 µM in each case.

Turning to `CCOC(=O)c1c(C)c(C)n2c1NC(=O)C2`, the TGI in test [1] is above 100 µM; in [2], above 100 µM; in test [3], above 78.2 µM; in [4], above 100 µM; in test [10] it was above 100 µM; in test [5], above 100 µM. Moreover, the TGI in test [6], in test [7], in test [8] and in test [9] was above 100 µM each time.

For `CCN(CC)CCOc1ccc(C(=O)/C=C\c2ccc(Cl)cc2Cl)cc1`, the GI50 is 4.51 µM in test [1]; 2.17 µM in [2]; 5.13 µM in [3]; 2.18 µM in [4]; 2.57 µM in test [10]; 6.55 µM in [5]. For the same compound, the GI50 in test [6] is 1.87 µM; in test [7], 4.73 µM; in [8] it was 4.1 µM; in test [9] it was 10.5 µM. The TGI in test [1] came to 15.2 µM; in test [2], 5 µM; in test [3], 18.1 µM; in test [4] it was 4.65 µM; in [10], 9.09 µM; in test [5], 22.6 µM. The TGI in test [6] worked out at 4.36 µM; in [7] it was 17.8 µM; in test [8], 14.5 µM; in test [9], 22.3 µM.

For the compound `CNC(=O)OCC1C2=C(C(=O)C(C)=C(N)C2=O)N2CC3C(N3C)C12OC` (centres undefined), the TGI in test [1] is 70.9 µM; in test [2] it was above 100 µM; in test [3], 57.1 µM; in [4] it was 24.8 µM; in test [10] it was above 100 µM; in [5] it was 29.5 µM. Also, the TGI in test [6] was 24.2 µM; in [7], 26.7 µM; in test [8], 64.7 µM; in test [9], 32.7 µM.

Turning to `O=[N+]([O-])c1ccc(S(=O)(=O)Cc2ccccc2)c2nonc12`, the TGI is 30.1 µM in [1]; 31.2 µM in test [2]; 33.5 µM in test [3]; 67.8 µM in test [10]; 83.8 µM in test [5]; 48.6 µM in [6]. Besides, the TGI came out at 46.1 µM in test [7], 34.6 µM in [8] and 38.2 µM in test [9].

Consider `COc1ccc(Nc2c3ccccc3nc3[nH]c4ccccc4c23)cc1`, for which the GI50 in [1] is 21.2 µM; in test [3] it was above 50 µM; in [5], 8.49 µM; in [6], 9.89 µM; in [7], 7.36 µM; in test [8], 7.87 µM. Moreover, the GI50 in [9] is 14 µM. The TGI in [1] is above 50 µM; in test [3] it was above 50 µM; in test [5], above 50 µM; in test [6], above 50 µM; in [7], 25 µM; in test [8], 28.9 µM. This compound showed a TGI in test [9] above 50 µM.

In the case of `CCCNc1nc2ccccc2c2c1S(=O)(=O)c1ccc(Cl)cc1C2=O`, the GI50 in [1] was 2.15 µM; in test [2], 0.625 µM; in test [3], 0.263 µM; in test [4], 1.62 µM; in test [10] it was 0.4 µM; in test [5], 1.99 µM. Further, the GI50 in [8] is 0.225 µM; in test [9], 1.46 µM. Further, the TGI in test [1] was above 50 µM; in [2], above 50 µM; in [3], 1.57 µM; in test [4], 34.4 µM; in test [10], 3.98 µM; in test [5] it was above 50 µM. The TGI in test [8] and in [9] was above 50 µM throughout.

`COc1cc2c3c(n(CCCN=[N+]=[N-])c(=O)c2cc1OC)-c1ccc(N(C)C)cc1C3=O`: the GI50 in test [1], in test [2], in test [3], in test [4], in [10] and in [5] was above 100 µM throughout. Besides, the GI50 in test [6], in test [7] and in test [8] was above 100 µM each time. The TGI in test [1], in [2], in [3], in [4], in test [10] and in [5] was above 100 µM each time. In addition, the TGI in [6], in test [7] and in [8] was above 100 µM each time.

As to `CSc1cccc(NC(=O)OC2CCCCCCCCCCC2)c1`, the TGI was 38.7 µM in test [1]; 59.5 µM in test [2]; 70.9 µM in test [3]; 45.5 µM in test [10]; above 100 µM in [5]; 45.9 µM in [6]. Besides, the TGI in test [7] was above 100 µM; in test [8] it was above 100 µM; in test [9], 61 µM.
